Test results taken from article PMC7403827 (Clinical and Translational Medicine, 2020).

Assay: Adverse events (CTCAE 4.0) under apatinib plus gefitinib
Assay type: in vivo, human
Settings: Apatinib 250 mg Cohort (n = 7), with gefitinib 250 mg; treatment‐related AE, patients (%)

Compound: N#CC1(c2ccc(NC(=O)c3cccnc3NCc3ccncc3)cc2)CCCC1 [Apatinib]
- Abdominal distention, ALL: 2 (28.6%)
- Abdominal distention, Grade 1–2: 2 (28.6%)
- Abdominal distention, Grade 3–4: 0
- Blurred vision, ALL: 0
- Blurred vision, Grade 1–2: 0
- Blurred vision, Grade 3–4: 0
- Cough, ALL: 4 (57.1%)
- Cough, Grade 1–2: 4 (57.1%)
- Cough, Grade 3–4: 0
- Diarrhea, ALL: 5 (71.4%)
- Diarrhea, Grade 1–2: 5 (71.4%)
- Diarrhea, Grade 3–4: 0
- Dizziness, ALL: 0
- Dizziness, Grade 1–2: 0
- Dizziness, Grade 3–4: 0
- Dry skin, ALL: 2 (28.6%)
- Dry skin, Grade 1–2: 2 (28.6%)
- Dry skin, Grade 3–4: 0
- Dysgeusia, ALL: 1 (14.3%)
- Dysgeusia, Grade 1–2: 1 (14.3%)
- Dysgeusia, Grade 3–4: 0
- Eczema, ALL: 1 (14.3%)
- Eczema, Grade 1–2: 1 (14.3%)
- Eczema, Grade 3–4: 0
- Elevated ALT, ALL: 3 (42.9%)
- Elevated ALT, Grade 1–2: 2 (28.6%)
- Elevated ALT, Grade 3–4: 1 (14.3%)
- Elevated AST, ALL: 2 (28.6%)
- Elevated AST, Grade 1–2: 1 (14.3%)
- Elevated AST, Grade 3–4: 1 (14.3%)
- Epistaxis, ALL: 3 (42.9%)
- Epistaxis, Grade 1–2: 3 (42.9%)
- Epistaxis, Grade 3–4: 0
- Fatigue, ALL: 2 (28.6%)
- Fatigue, Grade 1–2: 2 (28.6%)
- Fatigue, Grade 3–4: 0
- Gastrointestinal bleeding, ALL: 1 (14.3%)
- Gastrointestinal bleeding, Grade 1–2: 1 (14.3%)
- Gastrointestinal bleeding, Grade 3–4: 0
- HFSR, ALL: 2 (28.6%)
- HFSR, Grade 1–2: 2 (28.6%)
- HFSR, Grade 3–4: 0
- Haematuria, ALL: 1 (14.3%)
- Haematuria, Grade 1–2: 1 (14.3%)
- Haematuria, Grade 3–4: 0
- Headache, ALL: 1 (14.3%)
- Headache, Grade 1–2: 1 (14.3%)
- Headache, Grade 3–4: 0
- Hematochezia, ALL: 1 (14.3%)
- Hematochezia, Grade 1–2: 1 (14.3%)
- Hematochezia, Grade 3–4: 0
- Hypertension, ALL: 5 (71.4%)
- Hypertension, Grade 1–2: 4 (57.1%)
- Hypertension, Grade 3–4: 1 (14.3%)
- Increased bilirubin, ALL: 1 (14.3%)
- Increased bilirubin, Grade 1–2: 1 (14.3%)
- Increased bilirubin, Grade 3–4: 0
- Increased creatinine, ALL: 0
- Increased creatinine, Grade 1–2: 0
- Increased creatinine, Grade 3–4: 0
- Leukopenia, ALL: 0
- Leukopenia, Grade 1–2: 0
- Leukopenia, Grade 3–4: 0
- Nausea, ALL: 0
- Nausea, Grade 1–2: 0
- Nausea, Grade 3–4: 0
- Neutropenia, ALL: 0
- Neutropenia, Grade 1–2: 0
- Neutropenia, Grade 3–4: 0
- Oulorrhagia, ALL: 3 (42.9%)
- Oulorrhagia, Grade 1–2: 3 (42.9%)
- Oulorrhagia, Grade 3–4: 0
- Paronychia, ALL: 1 (14.3%)
- Paronychia, Grade 1–2: 1 (14.3%)
- Paronychia, Grade 3–4: 0
- Periodontitis, ALL: 1 (14.3%)
- Periodontitis, Grade 1–2: 1 (14.3%)
- Periodontitis, Grade 3–4: 0
- Pharyngalgia, ALL: 1 (14.3%)
- Pharyngalgia, Grade 1–2: 1 (14.3%)
- Pharyngalgia, Grade 3–4: 0
- Pneumonia (non‐interstitial), ALL: 1 (14.3%)
- Pneumonia (non‐interstitial), Grade 1–2: 1 (14.3%)
- Pneumonia (non‐interstitial), Grade 3–4: 0
- Proteinuria, ALL: 3 (42.9%)
- Proteinuria, Grade 1–2: 2 (28.6%)
- Proteinuria, Grade 3–4: 1 (14.3%)
- Pruritus, ALL: 0
- Pruritus, Grade 1–2: 0
- Pruritus, Grade 3–4: 0
- Rash, ALL: 5 (71.4%)
- Rash, Grade 1–2: 5 (71.4%)
- Rash, Grade 3–4: 0
- Stomatitis, ALL: 2 (28.6%)
- Stomatitis, Grade 1–2: 2 (28.6%)
- Stomatitis, Grade 3–4: 0
- Thrombocytopenia, ALL: 0
- Thrombocytopenia, Grade 1–2: 0
- Thrombocytopenia, Grade 3–4: 0
- Trachyphonia, ALL: 2 (28.6%)
- Trachyphonia, Grade 1–2: 2 (28.6%)
- Trachyphonia, Grade 3–4: 0
- Vomiting, ALL: 0
- Vomiting, Grade 1–2: 0
- Vomiting, Grade 3–4: 0
